Read-outs that look alike come from different tables or passages of the source.
Assays:
STAT3 SH2 domain = STAT3 SH2 domain (Homo sapiens, UniProt P40763); experiment: FP-based competitive binding assay, STAT3 SH2 domain
Experimental: The STAT family display a high degree of homology. […] Vilsmeyer-Haack formylation of 2-hydroxy acetophenones led to 3-formyl chromones, which were subsequently converted to the acyl hydrazones by reaction with hydrazides (Fig. 1). The target molecules were tested for their abilities to inhibit binding of fluorophore-labeled peptides to the SH2 domains of STAT1[24], STAT3[25], and STAT5b[26] in assays based on fluorescence polarization (FP). The more distantly related SH2 domain of the tyrosine kinase Lck served as additional specificity control[27],[28].
Assays were performed essentially as described. In brief, protein was incubated with the test compounds for 1 h at room temperature at the following protein concentrations: STAT1: 400 nM, STAT3: 210 nM, STAT5b: 300 nM, Lck SH2: 35 nM. Subsequently, the corresponding fluorophore-labeled peptide was added: STAT1: (5-carboxyfluorescein)-GpYDKPHVL-OH, derived from the interferon-γ receptor[24]; STAT3: (5-carboxyfluorescein)-GpYLPQTV-NH2, derived from the gp130 subunit of the IL-6 receptor[25]; STAT5b: (5-carboxyfluorescein)-GpYLVLDKW-OH, derived from the erythropoietin receptor[26]; Lck SH2: (5-carboxyfluorescein)-GpYEEIP-OH, derived from the middle-T antigen. After a further hour of incubation, fluorescence polarization was measured in a plate reader (Tecan Infinite F500). Apparent IC50 data shown in Tables 1, 2, and S1 and the inhibition curves shown in Fig. 2a correspond to this time point. The majority of the pipetting work was carried out using a Biomek FXp workstation (Beckman-Coulter). […]

[1] = tested on: STAT1 Tyr701 phosphorylation; experiment: Western Blot, IFN-γ-stimulated STAT1 Tyr701 phosphorylation in HepG2 cells; format: cell-based, human; settings: 1 h pre-treatment, 15 min 50 ng/mL IFNγ
Description: (§1) An inhibitor of a STAT SH2 domain prevents phosphorylation of STATs at this conserved tyrosine residue, thereby inhibiting STAT-mediated signal transduction (Fig. 3a). Consistent with its activity in the FP assay, 8 inhibited interleukin (IL)-6-stimulated STAT3 Tyr705 phosphorylation in HepG2 cells in a dose-dependent manner (Fig. 3b). […] In contrast, tyrosine phosphorylation of STAT5 in K562 cells is not inhibited (Fig. 3d). The activity profile in cells thus reflects the selectivity profile seen in vitro (Fig. 2a, Table 1), supporting the notion that cellular activities are mediated by functional inhibition of the STAT SH2 domains.
(§2) HepG2 cells were plated in 6-well plates (Corning #3516) and allowed to reach approximately 60% confluence. The medium was then replaced with serum-free medium for 24 h. […]
(§3) Lysates were separated on a polyacrylamide gel under denaturing conditions, and transferred to a nitrocellulose membrane. STAT phosphorylation was assessed using rabbit monoclonal antibodies against the phosphorylated forms only of STAT1, STAT3 or STAT5 (Cell Signaling, 1:1000) with secondary antibody swine anti-rabbit HRP from Dako, 1:3000), followed by reblotting with rabbit monoclonal antibodies against total STAT1, STAT3 or STAT5 (Cell Signaling), and subsequently β-actin loading control. […]

[2] = tested on: STAT3 Tyr705 phosphorylation; experiment: Western Blot, IL-6-stimulated STAT3 Tyr705 phosphorylation in HepG2 cells; format: cell-based, human; settings: 1 h pre-treatment, 30 min 50 ng/mL IL-6
Description: as §1, §2, §3

STAT5 phosphorylation = experiment: Western Blot, STAT5 tyrosine phosphorylation in K562 cells; format: cell-based, human
Description: as §1, §2, §3

STAT3 Glu594Ala mutant = STAT3 Glu594Ala mutant (Homo sapiens, UniProt P40763, E594A); experiment: FP assay against STAT3 Glu594Ala mutant; format: binding
Sequence of STAT3 Glu594Ala mutant (P40763 whole entry E594A): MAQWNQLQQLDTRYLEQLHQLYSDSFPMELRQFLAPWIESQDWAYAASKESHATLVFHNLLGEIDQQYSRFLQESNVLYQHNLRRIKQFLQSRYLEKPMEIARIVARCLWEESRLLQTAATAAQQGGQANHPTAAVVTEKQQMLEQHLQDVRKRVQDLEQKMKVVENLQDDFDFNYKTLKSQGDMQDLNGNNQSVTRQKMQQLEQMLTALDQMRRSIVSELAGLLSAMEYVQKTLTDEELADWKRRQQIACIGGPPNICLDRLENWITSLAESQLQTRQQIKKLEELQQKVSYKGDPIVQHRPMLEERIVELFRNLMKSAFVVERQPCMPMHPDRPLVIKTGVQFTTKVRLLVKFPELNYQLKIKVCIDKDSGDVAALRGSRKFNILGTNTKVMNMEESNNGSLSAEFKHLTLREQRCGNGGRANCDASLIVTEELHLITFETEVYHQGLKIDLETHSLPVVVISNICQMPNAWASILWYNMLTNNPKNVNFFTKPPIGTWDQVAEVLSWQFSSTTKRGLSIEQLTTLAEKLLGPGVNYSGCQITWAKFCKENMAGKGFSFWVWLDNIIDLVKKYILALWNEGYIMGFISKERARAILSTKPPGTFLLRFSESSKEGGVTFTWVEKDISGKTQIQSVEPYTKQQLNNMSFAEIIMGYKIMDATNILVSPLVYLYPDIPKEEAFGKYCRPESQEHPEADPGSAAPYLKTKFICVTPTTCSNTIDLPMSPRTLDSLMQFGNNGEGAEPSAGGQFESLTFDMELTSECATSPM
Description: The predicted (E)-trans-configuration of the acyl hydrazone moiety in the protein-bound state was also observed in the X-ray structure of crystals of 8 grown from ethyl acetate / hexane (Supplementary Fig. S4). Substantial conformational changes of the protein are required for ligand binding (Supplementary Fig. S3), a process which can account for the observed time-dependence of inhibition by 8 (Supplementary Fig. S5). […] Substitution of the pyridyl ring for electron-rich, five-membered heteroaromatic rings is tolerated (17–19). […] This behavior is consistent with hydrogen bonding between the molecules’ carbonyl group and the backbone amide of Gln635 as proposed by the docking studies (Fig. 2b), which is expected to suffer from electron-withdrawing substituents on the phenyl ring. Further evidence for hydrogen bonding arises from the inactivity of derivative 22, in which the carbonyl group has been deleted. Substitution of the carbonyl by a sulfonyl group (compound 23) is also not tolerated, indicating specific recognition of 8 by STAT3.
This reduction tails off, consistent with the idea that inhibition of STAT3 by 8 is a slow but reversible process. […]
easily susceptible to covalent modification by nucleophiles. […] C) Activity of 8 in a fluorescence polarization assay against wild-type STAT3 or a STAT3 Glu594Ala mutant after 2 h incubation in the presence of 1 mM DTT. […]

Sequence of STAT3 SH2 domain (P40763 whole entry, the tested form may be a part): as the sequence (P40763 whole entry E594A) above, with A594E counted along it

inhibition at 80 µM (STAT3 SH2 domain; at 80 µM, mean ± s.d., three experiments) [%] | IC50 (STAT3 SH2 domain; 1 h with protein, then 1 h with peptide, mean ± s.d., three experiments, read-out: STAT3 app. IC50) [µM] | IC50 (STAT3 SH2 domain; after 9 h, read-out: apparent IC50 against wild-type STAT3 after 9 h) [µM] | activity against STAT3 Glu594Ala mutant compared to wild-type STAT3 (STAT3 Glu594Ala mutant) | IC50 (STAT3 Glu594Ala mutant; 2 h incubation, 1 mM DTT, read-out: app. IC50 against STAT3 Glu594Ala mutant) [µM] | Structure (SMILES) | effect of omission of DTT from assay buffer on inhibitory activity against STAT3 (STAT3 SH2 domain; 2 h of incubation, without DTT) | IFN-γ-stimulated phosphorylation of STAT1 Tyr701 [1] | IL-6-stimulated STAT3 Tyr705 phosphorylation [2] | tyrosine phosphorylation of STAT5 (STAT5 phosphorylation)
45 ± 5 | – | – | – | – | CCC(C)(C)c1ccc2occ(/C=N/NC(=O)c3cccnc3)c(=O)c2c1 [Compound 9] | – | – | – | –
– | 9.7 ± 1.8 | 2.8 | three-fold lower activity | 27 ± 1 | CC(C)(C)c1ccc2occ(/C=N/NC(=O)c3cccnc3)c(=O)c2c1 [Compound 8] | does not significantly increase the inhibitory activity | inhibited to a lesser extent | inhibited | not inhibited

Reference: PMC5727211, “Development of Erasin: a chromone-based STAT3 inhibitor which induces apoptosis in Erlotinib-resistant lung cancer cells” (Scientific Reports, 2017)
